# Test results: patent publication US4358441A, “Nicotinic derivatives of glucosamine and related pharmaceutical compositions” (Laboratorio Guidotti & C. S.p.A., priority 1980, dated 1982)
# Assays:
# plasma levels of FFA = test: Effect of oral administration on plasma levels of FFA in the empty rat; details: for Percent variations of plasma FFA with respect to the controls / Percent variations of plasma FFA with respect to the control: empty rat; for Time within which the effect on FFA disappears: 100 mg/kg oral, rat; for Percent variations of plasma FFA with respect to the control: Table 5, 100 mg/kg oral referred to nicotinic acid
# [1] = tested on: plasma levels of triglycerides; test: Effect of oral administration on plasma levels of triglycerides in the empty rat; type: in vivo, rat (COBS CD (SD) BR male); details: for Percent variations of plasma triglycerides with respect to the controls / Percent variations of plasma triglycerides with respect to the control: empty rat; for Time within which the effect on triglycerides disappears: rat; for Percent variations of plasma triglycerides with respect to the control: Table 5, 100 mg/kg oral referred to nicotinic acid
# [2] = tested on: plasma levels of cholesterol; test: Effect of oral administration on plasma levels of cholesterol in the empty rat; type: in vivo, rat (COBS CD (SD) BR male); details: for Percent variations of plasma cholesterol with respect to the controls: 100 mg/kg oral referred to nicotinic acid; for Percent variations of plasma cholesterol with respect to the controls / Percent variations of plasma cholesterol with respect to the control: empty rat; for Lowering of cholesterolemy: 100 mg/kg oral, rat; for Percent variations of plasma cholesterol with respect to the control: Table 5, 100 mg/kg oral referred to nicotinic acid
# [3] = tested on: plasma levels of free glycerol; test: Effect of oral administration on plasma levels of free glycerol in the empty rat; type: in vivo, rat (COBS CD (SD) BR male); details: for Percent variations of plasma free glycerol with respect to the controls: empty rat; for Activity on free glycerol: 30 mg/kg oral; for Activity on free glycerol / Time within which the effect on free glycerol disappears: rat; for Time within which the effect on free glycerol disappears: 100 mg/kg oral
# Solubility = type: physicochemical
# [4] = 30 mg/kg oral referred to nicotinic acid, 1 h
# [5] = 30 mg/kg oral referred to nicotinic acid, 2 h
# [6] = 30 mg/kg oral referred to nicotinic acid, 4 h
# [7] = 30 mg/kg oral referred to nicotinic acid, 6 h
# [8] = 100 mg/kg oral referred to nicotinic acid, 2 h
# [9] = 100 mg/kg oral referred to nicotinic acid, 4 h
# [10] = 100 mg/kg oral referred to nicotinic acid, 6 h
# [11] = 100 mg/kg oral referred to nicotinic acid, 8 h
# [12] = 100 mg/kg oral referred to nicotinic acid, 10 h
# [13] = 100 mg/kg oral referred to nicotinic acid, 16 h
# [14] = 100 mg/kg oral referred to nicotinic acid, 24 h
smiles,measurement,setting,value
"O=C(OCC(COC(=O)c1cccnc1)(COC(=O)c1cccnc1)COC(=O)c1cccnc1)c1cccnc1 [NICERITROLE, pentaerithritol-tetranicotinate]",Percent variations of plasma FFA with respect to the controls,plasma levels of FFA; [4],-87%
same,Percent variations of plasma FFA with respect to the controls,plasma levels of FFA; [5],-18%
same,Percent variations of plasma FFA with respect to the controls,plasma levels of FFA; [6],+9%
same,Percent variations of plasma FFA with respect to the controls,plasma levels of FFA; [7],+8%
same,Percent variations of plasma FFA with respect to the controls,plasma levels of FFA; [8],-70%
same,Percent variations of plasma FFA with respect to the controls,plasma levels of FFA; [9],-43%
same,Percent variations of plasma FFA with respect to the controls,plasma levels of FFA; [10],+27%
same,Percent variations of plasma FFA with respect to the controls,plasma levels of FFA; [11],+10%
same,Percent variations of plasma FFA with respect to the controls,plasma levels of FFA; [12],-2%
same,Percent variations of plasma FFA with respect to the controls,plasma levels of FFA; [13],+6%
same,Percent variations of plasma FFA with respect to the controls,plasma levels of FFA; [14],-8%
same,Time within which the effect on FFA disappears,plasma levels of FFA,≤ 6 h
same,Percent variations of plasma triglycerides with respect to the controls,[1]; [4],-45%
same,Percent variations of plasma triglycerides with respect to the controls,[1]; [5],-27%
same,Percent variations of plasma triglycerides with respect to the controls,[1]; [6],+13%
same,Percent variations of plasma triglycerides with respect to the controls,[1]; [7],-6%
same,Time within which the effect on triglycerides disappears,[1]; 30 mg/kg oral,≤ 2 h
same,Percent variations of plasma triglycerides with respect to the controls,[1]; [8],-41%
same,Percent variations of plasma triglycerides with respect to the controls,[1]; [9],-56%
same,Percent variations of plasma triglycerides with respect to the controls,[1]; [10],-63%
same,Percent variations of plasma triglycerides with respect to the controls,[1]; [11],-30%
same,Percent variations of plasma triglycerides with respect to the controls,[1]; [12],+9%
same,Percent variations of plasma triglycerides with respect to the controls,[1]; [13],-3%
same,Percent variations of plasma triglycerides with respect to the controls,[1]; [14],+5%
same,Time within which the effect on triglycerides disappears,[1]; 100 mg/kg oral,within the eighth hour
same,Percent variations of plasma cholesterol with respect to the controls,[2]; 4 h,-2%
same,Percent variations of plasma cholesterol with respect to the controls,[2]; 6 h,-7%
same,Percent variations of plasma cholesterol with respect to the controls,[2]; 8 h,0%
same,Percent variations of plasma cholesterol with respect to the controls,[2]; 10 h,-10%
same,Percent variations of plasma cholesterol with respect to the controls,[2]; 16 h,-17%
same,Percent variations of plasma cholesterol with respect to the controls,[2]; 24 h,-14%
same,Lowering of cholesterolemy,[2],never significant
same,Percent variations of plasma free glycerol with respect to the controls,[3]; [4],-77%
same,Percent variations of plasma free glycerol with respect to the controls,[3]; [5],-9%
same,Percent variations of plasma free glycerol with respect to the controls,[3]; [6],-4%
same,Percent variations of plasma free glycerol with respect to the controls,[3]; [7],+11%
same,Activity on free glycerol,[3],active only after 1 hour
same,Percent variations of plasma free glycerol with respect to the controls,[3]; [8],-61%
same,Percent variations of plasma free glycerol with respect to the controls,[3]; [9],-34%
same,Percent variations of plasma free glycerol with respect to the controls,[3]; [10],+17%
same,Percent variations of plasma free glycerol with respect to the controls,[3]; [11],+11%
same,Percent variations of plasma free glycerol with respect to the controls,[3]; [12],+4%
same,Percent variations of plasma free glycerol with respect to the controls,[3]; [13],+13%
same,Percent variations of plasma free glycerol with respect to the controls,[3]; [14],+3%
same,Time within which the effect on free glycerol disappears,[3],within the fourth hour
"O=C(OC[C@H](OC(=O)c1cccnc1)[C@@H](OC(=O)c1cccnc1)[C@H](OC(=O)c1cccnc1)[C@@H](COC(=O)c1cccnc1)OC(=O)c1cccnc1)c1cccnc1 [SORBINICATE, D-glucitol hexanicotinate]",Percent variations of plasma FFA with respect to the controls,plasma levels of FFA; [4],-56%
same,Percent variations of plasma FFA with respect to the controls,plasma levels of FFA; [5],-14%
same,Percent variations of plasma FFA with respect to the controls,plasma levels of FFA; [6],+13%
same,Percent variations of plasma FFA with respect to the controls,plasma levels of FFA; [7],-9%
same,Percent variations of plasma FFA with respect to the controls,plasma levels of FFA; [8],-72%
same,Percent variations of plasma FFA with respect to the controls,plasma levels of FFA; [9],-1%
same,Percent variations of plasma FFA with respect to the controls,plasma levels of FFA; [10],+6%
same,Percent variations of plasma FFA with respect to the controls,plasma levels of FFA; [11],+4%
same,Percent variations of plasma FFA with respect to the controls,plasma levels of FFA; [12],-5%
same,Percent variations of plasma FFA with respect to the controls,plasma levels of FFA; [13],+6%
same,Percent variations of plasma FFA with respect to the controls,plasma levels of FFA; [14],+2%
same,Time within which the effect on FFA disappears,plasma levels of FFA,≤ 4 h
same,Percent variations of plasma triglycerides with respect to the controls,[1]; [4],-42%
same,Percent variations of plasma triglycerides with respect to the controls,[1]; [5],-16%
same,Percent variations of plasma triglycerides with respect to the controls,[1]; [6],+6%
same,Percent variations of plasma triglycerides with respect to the controls,[1]; [7],-3%
same,Time within which the effect on triglycerides disappears,[1]; 30 mg/kg oral,≤ 2 h
same,Percent variations of plasma triglycerides with respect to the controls,[1]; [8],-61%
same,Percent variations of plasma triglycerides with respect to the controls,[1]; [9],-46%
same,Percent variations of plasma triglycerides with respect to the controls,[1]; [10],-55%
same,Percent variations of plasma triglycerides with respect to the controls,[1]; [11],-5%
same,Percent variations of plasma triglycerides with respect to the controls,[1]; [12],+9%
same,Percent variations of plasma triglycerides with respect to the controls,[1]; [13],-3%
same,Percent variations of plasma triglycerides with respect to the controls,[1]; [14],-25%
same,Time within which the effect on triglycerides disappears,[1]; 100 mg/kg oral,within the eighth hour
same,Percent variations of plasma cholesterol with respect to the controls,[2]; 4 h,-14%
same,Percent variations of plasma cholesterol with respect to the controls,[2]; 6 h,-15%
same,Percent variations of plasma cholesterol with respect to the controls,[2]; 8 h,-7%
same,Percent variations of plasma cholesterol with respect to the controls,[2]; 10 h,-15%
same,Percent variations of plasma cholesterol with respect to the controls,[2]; 16 h,-13%
same,Percent variations of plasma cholesterol with respect to the controls,[2]; 24 h,-9%
same,Lowering of cholesterolemy,[2],at the tenth hour only
same,Percent variations of plasma free glycerol with respect to the controls,[3]; [4],-59%
same,Percent variations of plasma free glycerol with respect to the controls,[3]; [5],-27%
same,Percent variations of plasma free glycerol with respect to the controls,[3]; [6],+2%
same,Percent variations of plasma free glycerol with respect to the controls,[3]; [7],-7%
same,Activity on free glycerol,[3],active only after 1 hour
same,Percent variations of plasma free glycerol with respect to the controls,[3]; [8],-70%
same,Percent variations of plasma free glycerol with respect to the controls,[3]; [9],-3%
same,Percent variations of plasma free glycerol with respect to the controls,[3]; [10],+3%
same,Percent variations of plasma free glycerol with respect to the controls,[3]; [11],+20%
same,Percent variations of plasma free glycerol with respect to the controls,[3]; [12],+8%
same,Percent variations of plasma free glycerol with respect to the controls,[3]; [13],-1%
same,Percent variations of plasma free glycerol with respect to the controls,[3]; [14],-1%
same,Time within which the effect on free glycerol disappears,[3],within the fourth hour
"N[C@H]1C(OC(=O)c2cccnc2)O[C@H](COC(=O)c2cccnc2)[C@@H](OC(=O)c2cccnc2)[C@@H]1OC(=O)c1cccnc1 (stereo partly drawn) [glucosamine tetranicotinate, Glucosamine tetranicotinate]",Percent variations of plasma FFA with respect to the control,plasma levels of FFA; 2 h,-70%
same,Percent variations of plasma FFA with respect to the control,plasma levels of FFA; 4 h,-48%
same,Percent variations of plasma FFA with respect to the control,plasma levels of FFA; 8 h,-65%
same,Percent variations of plasma triglycerides with respect to the control,[1]; 2 h,-54%
same,Percent variations of plasma triglycerides with respect to the control,[1]; 4 h,-53%
same,Percent variations of plasma triglycerides with respect to the control,[1]; 8 h,-82%
same,Percent variations of plasma cholesterol with respect to the control,[2]; 4 h,-16%
same,Percent variations of plasma cholesterol with respect to the control,[2]; 8 h,-26%
same,Percent variations of plasma cholesterol with respect to the control,[2]; 24 h,-59%
same,Solubility,Solubility,soluble in the common organic solvents and in acid solutions
"O=C(N[C@H]1[C@@H](OC(=O)c2cccnc2)O[C@H](COC(=O)c2cccnc2)[C@@H](OC(=O)c2cccnc2)[C@@H]1OC(=O)c1cccnc1)c1cccnc1 [α, α-N-nicotinoyl-glucosamine tetranicotinate]",Percent variations of plasma FFA with respect to the control,plasma levels of FFA; 2 h,-64%
same,Percent variations of plasma FFA with respect to the control,plasma levels of FFA; 4 h,-13%
same,Percent variations of plasma FFA with respect to the control,plasma levels of FFA; 8 h,-7%
same,Percent variations of plasma triglycerides with respect to the control,[1]; 2 h,-56%
same,Percent variations of plasma triglycerides with respect to the control,[1]; 4 h,-68%
same,Percent variations of plasma triglycerides with respect to the control,[1]; 8 h,-47%
same,Percent variations of plasma cholesterol with respect to the control,[2]; 4 h,-4%
same,Percent variations of plasma cholesterol with respect to the control,[2]; 8 h,-12%
same,Percent variations of plasma cholesterol with respect to the control,[2]; 24 h,-44%
same,Solubility,Solubility,soluble in the common non-polar organic solvents
"O=C(N[C@H]1[C@H](OC(=O)c2cccnc2)O[C@H](COC(=O)c2cccnc2)[C@@H](OC(=O)c2cccnc2)[C@@H]1OC(=O)c1cccnc1)c1cccnc1 [β, β-N-nicotinoyl-glucosamine tetranicotinate]",Percent variations of plasma FFA with respect to the control,plasma levels of FFA; 2 h,-67%
same,Percent variations of plasma FFA with respect to the control,plasma levels of FFA; 4 h,-30%
same,Percent variations of plasma FFA with respect to the control,plasma levels of FFA; 8 h,-44%
same,Percent variations of plasma triglycerides with respect to the control,[1]; 2 h,-53%
same,Percent variations of plasma triglycerides with respect to the control,[1]; 4 h,-77%
same,Percent variations of plasma triglycerides with respect to the control,[1]; 8 h,-69%
same,Percent variations of plasma cholesterol with respect to the control,[2]; 4 h,-2%
same,Percent variations of plasma cholesterol with respect to the control,[2]; 8 h,-17%
same,Percent variations of plasma cholesterol with respect to the control,[2]; 24 h,-43%
same,Solubility,Solubility,"slightly soluble in acetone, ethanol and chloroform, but soluble in dilute acids"
